For orientation: melting point means the temperature, or range, at which the solid turns liquid.

The values below come from patent publication US7479564B2, “Aryl or heteroaryl fused imidazole compounds as anti-inflammatory and analgesic agents” (RaQualia Pharma Inc., priority 2000, dated 2009).

In turn, `CCc1nc2cc(C(=O)NC)c(Cl)cc2n1-c1ccc(CCOC(=O)NS(=O)(=O)c2ccc(C)cc2)cc1` [Example 334, 2-(4-{6CHLORO-2-ETHYL-5-[(METHYLAMINO)CARBONYL]-1H-BENZIMIDAZOL-1-YL}PHENYL)ETHYL (4-METHYLPHENYL)SULFONYLCARBAMATE] showed a melting point of 201 to 204 °C.
Then `CCc1nc2cc(C(N)=O)c(Cl)cc2n1-c1ccc(CCOC(=O)NS(=O)(=O)c2ccc(C)cc2)cc1`, with 170 to 175 °C; and `Cc1ccc(S(=O)(=O)NC(=O)OCCc2ccc(-n3c(CCC(=O)N4CCCCC4)nc4cc(C(F)(F)F)c(Cl)cc43)cc2)cc1`, with 210 °C.
In the case of `Cc1ccc(S(=O)(=O)NC(=O)OCCc2ccc(-n3c(CCC(=O)N4CCCC4)nc4cc(C(F)(F)F)c(Cl)cc43)cc2)cc1` [Example 363, 2-{4-[6-CHLORO-2-[3-OXO-3-(1-PYRROLIDINYL)PROPYL]-5-(TRIFLUOROMETHYL)-1H-BENZIMIDAZOL-1-YL]PHENYL}ETHYL (4-METHYLPHENYL)SULFONYLCARBAMATE] it was 98 to 105 °C; in that of `CCc1nc2c(C)cc(C)nc2n1-c1ccc(CC(C)OC(=O)NS(=O)(=O)c2ccc(C)cc2)cc1` (stereo not shown) [Example 7, 2-[4-(2-ETHYL-5,7-DIMETHYL-3H-IMIDAZO[4,5-b]PYRIDIN-3-YL)PHENYL]-1-METHYLETHYL (4-METHYLPHENYL)SULFONYLCARBAMATE], 108 °C; in that of `CCc1nc2cc(CO)c(Cl)cc2n1-c1ccc(CCOC(=O)NS(=O)(=O)c2ccc(C)cc2)cc1` [Example 337, 2-{4-[6-CHLORO-2-ETHYL-5-(HYDROXYMETHYL)-1H-BENZIMIDAZOL-1-YL]PHENYL}ETHYL (4-METHYLPHENYL)SULFONYLCARBAMATE], 172.7 °C.
In the case of `Cc1ccc(S(=O)(=O)NC(=O)OCCc2ccc(-n3c(CCCN4CCCC4=O)nc4cc(C(F)(F)F)c(Cl)cc43)cc2)cc1` it was 85 to 90 °C; in that of `Cc1ccc(S(=O)(=O)NC(=O)OCCc2ccc(-n3c(CCC(=O)c4ccccn4)nc4cc(C(F)(F)F)c(Cl)cc43)cc2)cc1`, 233.6 °C.
`Cc1ccc(S(=O)(=O)NC(=O)OCCc2ccc(-n3c(CCC(=O)c4cccnc4)nc4cc(C(F)(F)F)c(Cl)cc43)cc2)cc1` displayed a melting point of 89 to 95 °C.
Consider `CCc1nc2cc(COC)c(Cl)cc2n1-c1ccc(CCOC(=O)NS(=O)(=O)c2ccc(C)cc2)cc1`, for which the melting point was 174.5 °C.
